Assay results reported in BigSolDB 2.1.

CC1(C)[C@H](C(=O)O)N2C(=O)[C@@H](NC(=O)Cc3ccccc3)[C@H]2S1=O (stereo partly drawn)
Conditions	solubility (mole fraction)
in MIBK, 278.15 K	0.00173
in MIBK, 287.85 K	0.00184
in MIBK, 295.15 K	0.00201
in MIBK, 297.95 K	0.00213
in MIBK, 303.35 K	0.00227
in MIBK, 308.05 K	0.00238
in MIBK, 313.35 K	0.00262
in MIBK, 317.65 K	0.00278
in MIBK, 323.75 K	0.00316
in ethyl acetate, 273.15 K	0.00211
in ethyl acetate, 278.15 K	0.00222
in ethyl acetate, 283.25 K	0.00227
in ethyl acetate, 288.15 K	0.00233
in ethyl acetate, 292.75 K	0.00256
in ethyl acetate, 298.55 K	0.0028
in ethyl acetate, 303.15 K	0.00316
in ethyl acetate, 307.45 K	0.00338
in ethyl acetate, 312.85 K	0.00383
in ethyl acetate, 317.65 K	0.0044
in ethyl acetate, 321.25 K	0.00486
in n-butyl acetate, 273.15 K	0.000603
in n-butyl acetate, 278.25 K	0.000678
in n-butyl acetate, 281.95 K	0.000735
in n-butyl acetate, 287.65 K	0.000825
in n-butyl acetate, 292.55 K	0.000979
in n-butyl acetate, 297.35 K	0.0011
in n-butyl acetate, 302.95 K	0.00134
in n-butyl acetate, 307.65 K	0.00151
in n-butyl acetate, 312.65 K	0.00166
in n-butyl acetate, 317.65 K	0.00192
in toluene, 283.15 K	2.74e-05
in toluene, 288.35 K	3.68e-05
in toluene, 293.95 K	5.26e-05
in toluene, 298.15 K	6.12e-05
in toluene, 303.45 K	6.97e-05
in toluene, 311.65 K	8.7e-05
in toluene, 316.85 K	0.000105
in toluene, 323.65 K	0.000113
